Molecules are shown by their SMILES.

The target in this assay is T1, human OX1 receptor (Homo sapiens, UniProt O43613).
T1 sequence (O43613 1-425): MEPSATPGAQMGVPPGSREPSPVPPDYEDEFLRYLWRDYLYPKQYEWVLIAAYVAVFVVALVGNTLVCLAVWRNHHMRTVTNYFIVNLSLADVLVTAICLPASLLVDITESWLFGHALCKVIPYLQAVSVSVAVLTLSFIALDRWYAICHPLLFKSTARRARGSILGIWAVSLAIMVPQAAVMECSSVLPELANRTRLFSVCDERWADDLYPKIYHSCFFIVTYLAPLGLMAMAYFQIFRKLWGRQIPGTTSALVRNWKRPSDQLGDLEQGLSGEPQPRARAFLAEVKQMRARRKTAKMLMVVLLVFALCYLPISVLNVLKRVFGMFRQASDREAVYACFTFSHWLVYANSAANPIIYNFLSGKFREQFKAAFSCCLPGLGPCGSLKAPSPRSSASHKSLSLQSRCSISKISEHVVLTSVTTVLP
Kind of assay: IPone accumulation assay, CHO cells expressing OX1 (antagonism of orexin A). In kind it is cell-based. The following applies: IPone accumulation, CHO human OX1, orexin A EC80 challenge (~20 nM); read-out: fpKb average OX1 (converted). Here is the method:
Generation of CHO stable cell lines expressing the human OX1R and OX2R. Stable cell lines for the human OX1R and OX2R receptors were generated through the transfection of CHO cells using the transfection reagent Genejuice (Novagen number 70967) and cDNA coding for either the human OX1R or OX2R. Cells were cultured in Sigma Nutrient Mixture F-12 Ham media (catalog number N6658) supplemented with 10% heat-inactivated FBS. Forty-eight hours after transfection, cells were harvested and placed under geneticin selection by culturing in Sigma Nutrient Mixture F-12 Ham media supplemented with 10% heat-inactivated FBS and geneticin (ThermoFisher Catalog number: 10131035). Selection of the final stable clone for each receptor was made on the basis of receptor expression, assay signal to noise and robustness though increasing passage. Selected clones for the human OX1R and OX2R were then frozen down into liquid nitrogen using Cell Freezing Medium-DMSO (Sigma-Aldrich catalog number: C6164). IPone accumulation assay. A CHO cell line stably expressing either human OX1 or OX2 receptor was used with the IPone HTRF assay kit (CisBio: Part #62[…]) to measure receptor activation. The assay was optimised to measure the ability (potency; fpKb) of antagonists to reduce agonist (orexin A)-induced inositol phosphate turnover. Briefly, cells were plated onto half area 96-well white walled plates at a density of 12,500 cells/well. Sixteen hours post-plating cell growth media was replaced with antagonist concentration-response curve diluted in stimulation buffer (supplied with the kit). Cells were incubated in a humidified incubator (37° C.) for 30 min before an EC80 challenge concentration ( 20 nM (OX1) and 40 nM (OX2)) of orexin A (Tocris catalogue number 1455). After 30 min stimulation in a humidified incubator (37° C.) the assay was terminated by the addition of detection mixture as per manufacturer's instructions. The concentration of compound which reduced orexin-A stimulated turnover of inositol phosphates by 50% (IC50) was calculated by fitting to a four parameter sigmoidal dose response curve. The IC50 values were converted to fpKB values using the orexin A pEC50 value estimated on each plate as well as the challenge concentration interpolated from the orexin A control curve.
As to `COc1nc(OC)c(C(C)(F)F)cc1N1CCc2c(F)cccc2N(Cc2c(F)cc(Br)cc2F)C1=O` [Example 23, 1-(4-bromo-2,6-difluorobenzyl)-3-[5-(1,1-difluoroethyl)-2,6-dimethoxypyridin-3-yl]-6-fluoro-1,3,4,5-tetrahydro-2H-1,3-benzodiazepin-2-one], the Kb was 50.1 nM.

For `COc1ncc(C2CCc3c(F)cccc3N(Cc3c(F)cc(Br)cc3F)C2=O)cc1S(C)(=O)=O` (racemic) [Example 19, 1-(4-bromo-2,6-difluorobenzyl)-6-fluoro-3-[6-methoxy-5-(methylsulfonyl)pyridin-3-yl]-1,3,4,5-tetrahydro-2H-1-benzazepin-2-one], the Kb was 31.6 nM.

As to `Cc1ncc(C2CCc3c(F)cccc3N(Cc3c(F)cc(Br)cc3F)C2=O)cc1S(C)(=O)=O` (single isomer, unassigned) [Example 38, 1-(4-bromo-2,6-difluorobenzyl)-6-fluoro-3-[6-methyl-5-(methylsulfonyl)pyridin-3-yl]-1,3,4,5-tetrahydro-2H-1-benzazepin-2-one], the Kb was 20 nM.

In the case of `COc1ncc(C2CCc3c(F)cccc3N(Cc3cc(C#N)ccc3F)C2=O)cc1C(C)(F)F` (single isomer, unassigned) [Example 13, 3-({3-[5-(1,1-difluoroethyl)-6-methoxypyridin-3-yl]-6-fluoro-2-oxo-2,3,4,5-tetrahydro-1H-1-benzazepin-1-yl}methyl)-4-fluorobenzonitrile], the Kb is 50.1 nM.

As for `COc1cc(F)c(CN2C(=O)N(c3cnc(OC)c(S(C)(=O)=O)c3)CCc3c(F)cccc32)c(F)c1F` [Example 15, 6-fluoro-3-[6-methoxy-5-(methylsulfonyl)pyridin-3-yl]-1-(2,3,6-trifluoro-4-methoxybenzyl)-1,3,4,5-tetrahydro-2H-1,3-benzodiazepin-2-one], the Kb is 126 nM.

As for `Cc1cc(C)c(S(C)(=O)=O)cc1N1CCc2ccccc2N(Cc2c(F)cc(Br)cc2F)C1=O` [Example 29, 1-(4-bromo-2,6-difluorobenzyl)-3-[2,4-dimethyl-5-(methylsulfonyl)phenyl]-1,3,4,5-tetrahydro-2H-1,3-benzodiazepin-2-one], the Kb was 39.8 nM.

For `Cc1ncc(C2CCc3c(F)cccc3N(Cc3c(F)cc(Br)cc3F)C2=O)cc1C(C)(F)F` (single isomer, unassigned) [Example 35, 1-(4-bromo-2,6-difluorobenzyl)-3-[5-(1,1-difluoroethyl)-6-methylpyridin-3-yl]-6-fluoro-1,3,4,5-tetrahydro-2H-1-benzazepin-2-one], the Kb is 63.1 nM.

Take `CCCc1cc(F)c(CN2C(=O)N(c3cnc(C)c(C(C)(F)F)c3)CCc3c(F)cccc32)c(F)c1` [Example 34, 3-[5-(1,1-difluoroethyl)-6-methylpyridin-3-yl]-1-(2,6-difluoro-4-propylbenzyl)-6-fluoro-1,3,4,5-tetrahydro-2H-1,3-benzodiazepin-2-one]: the Kb was 79.4 nM.

As to `Cc1ncc(C2CCc3c(F)cccc3N(Cc3c(F)cc(Br)cc3F)C2=O)cc1C(C)(F)F` (single isomer, unassigned) [Example 36, 1-(4-bromo-2,6-difluorobenzyl)-3-[5-(1,1-difluoroethyl)-6-methylpyridin-3-yl]-6-fluoro-1,3,4,5-tetrahydro-2H-1-benzazepin-2-one], the Kb is 20 nM.

For the molecule `COc1ccc(CN2C(=O)N(c3cnc(OC)c(C(C)(F)F)c3)CCc3c(F)cccc32)c(F)c1` [Example 4, 3-[5-(1,1-difluoroethyl)-6-methoxypyridin-3-yl]-6-fluoro-1-(2-fluoro-4-methoxybenzyl)-1,3,4,5-tetrahydro-2H-1,3-benzodiazepin-2-one], the Kb was 15.8 nM.

On to `COc1cc(F)c(CN2C(=O)N(c3cnc(OC)c(S(C)(=O)=O)c3)CCc3c(F)cccc32)c(F)c1` [Example 16, 1-(2,6-difluoro-4-methoxybenzyl)-6-fluoro-3-[6-methoxy-5-(methylsulfonyl)pyridin-3-yl]-1,3,4,5-tetrahydro-2H-1,3-benzodiazepin-2-one], for which the Kb is 15.8 nM.

For `Cc1ncc(C2CCc3c(F)cccc3N(Cc3c(F)cc(Br)cc3F)C2=O)cc1S(C)(=O)=O` (single isomer, unassigned) [Example 39, 1-(4-bromo-2,6-difluorobenzyl)-6-fluoro-3-[6-methyl-5-(methylsulfonyl)pyridin-3-yl]-1,3,4,5-tetrahydro-2H-1-benzazepin-2-one], the Kb was 31.6 nM.

For `Cc1ccc(N2CCc3c(F)cccc3N(Cc3c(F)cc(Br)cc3F)C2=O)cc1S(C)(=O)=O` [Example 27, 1-(4-bromo-2,6-difluorobenzyl)-6-fluoro-3-[4-methyl-3-(methylsulfonyl)phenyl]-1,3,4,5-tetrahydro-2H-1,3-benzodiazepin-2-one], the Kb is 126 nM.

Consider `Cc1cc(C)c(S(C)(=O)=O)cc1N1CCc2c(F)cccc2N(Cc2c(F)cc(Br)cc2F)C1=O` [Example 31, 1-(4-bromo-2,6-difluorobenzyl)-3-[2,4-dimethyl-5-(methylsulfonyl)phenyl]-6-fluoro-1,3,4,5-tetrahydro-2H-1,3-benzodiazepin-2-one], for which the Kb was 20 nM.

For `COc1ncc(C2CCc3c(F)cccc3N(Cc3c(F)cc(Br)cc3F)C2=O)cc1S(C)(=O)=O` (single isomer, unassigned) [Example 21, 1-(4-bromo-2,6-difluorobenzyl)-6-fluoro-3-[6-methoxy-5-(methylsulfonyl)pyridin-3-yl]-1,3,4,5-tetrahydro-2H-1-benzazepin-2-one], the Kb was 10 nM.

These data come from patent publication US20210179578A1, “OX1 ANTAGONISTS” (Heptares Therapeutics Limited, priority 2017, published 2021).
